Measurements: PMC12594171, “DKK3-LRP1 complex and a chemical inhibitor regulate Aβ clearance in models of Alzheimer’s disease” (Science Advances, 2025)

Biological target: low-density lipoprotein receptor-related protein 1 (LRP1), minireceptor mLRPIV (Homo sapiens, UniProt Q07954)
Assay: SPR (Biacore T200, mLRPIV immobilized on CM5 chip); also inhibits DKK3 binding to mLRPIV by SPR, IC50 […]

Sequence of low-density lipoprotein receptor-related protein 1 (LRP1), minireceptor mLRPIV (Q07954 3331-3778 limits assumed): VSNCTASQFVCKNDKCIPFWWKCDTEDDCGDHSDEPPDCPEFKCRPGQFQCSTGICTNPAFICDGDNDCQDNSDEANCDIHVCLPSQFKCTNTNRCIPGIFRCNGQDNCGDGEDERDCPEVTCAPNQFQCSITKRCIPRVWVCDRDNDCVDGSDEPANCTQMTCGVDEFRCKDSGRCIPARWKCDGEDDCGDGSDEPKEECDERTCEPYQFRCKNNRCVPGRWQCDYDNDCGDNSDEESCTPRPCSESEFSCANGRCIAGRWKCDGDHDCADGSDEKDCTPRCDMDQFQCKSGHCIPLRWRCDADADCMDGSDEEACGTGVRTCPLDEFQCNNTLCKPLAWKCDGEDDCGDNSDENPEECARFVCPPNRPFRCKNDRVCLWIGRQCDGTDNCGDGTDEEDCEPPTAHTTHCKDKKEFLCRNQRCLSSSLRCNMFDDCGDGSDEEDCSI

Q: With `Cc1nn(-c2ccc(F)cc2)c(C)c1CNC1CCN(C2CC2)CC1` [SJ-300] as the compound, how does the Kd read?
A: 7.9 µM
